We go through three compounds from ChEMBL document CHEMBL1201862, “PubChem BioAssay data set” (2004).

SMILES strings stand for the structures. Calls of active or inactive are those of the source.

For assay [1], the target named is E3 ubiquitin-protein ligase Mdm2 (Homo sapiens, UniProt Q00987). The experiment in a line: MDM2-luc reporter signal enhancers, multi-concentration potency testing, MDM2 ubiquitin-protein ligase inhibitor program, whole-cell format, luminescence detection, 384-well microplate (AID 1394).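 Note: MDM2 E3 inhibitors raise luminescence so EC50 is for signal enhancement.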 It counts as functional.
E3 ubiquitin-protein ligase Mdm2, sequence (Q00987 whole entry): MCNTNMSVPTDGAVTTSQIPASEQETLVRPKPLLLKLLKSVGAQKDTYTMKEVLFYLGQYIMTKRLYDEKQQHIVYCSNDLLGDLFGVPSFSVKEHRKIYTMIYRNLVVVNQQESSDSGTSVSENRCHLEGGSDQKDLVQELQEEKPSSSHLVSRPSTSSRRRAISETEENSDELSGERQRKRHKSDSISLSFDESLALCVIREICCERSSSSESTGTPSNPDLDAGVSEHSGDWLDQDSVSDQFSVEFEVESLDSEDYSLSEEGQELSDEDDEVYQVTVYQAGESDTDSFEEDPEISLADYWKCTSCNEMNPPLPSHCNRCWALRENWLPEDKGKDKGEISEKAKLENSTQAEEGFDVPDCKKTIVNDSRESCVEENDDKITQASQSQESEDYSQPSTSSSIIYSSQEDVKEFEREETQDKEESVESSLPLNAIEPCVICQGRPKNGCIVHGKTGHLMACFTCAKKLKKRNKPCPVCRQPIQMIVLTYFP
Assay [2] concerns the target T1, Fatty acid synthase (Homo sapiens, UniProt P49327). The experiment in a line: inhibition of human FAS-TE enzyme activity – biochemical, kinetic fluorescence intensity, dose response (AID 624326).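 Note: rate of fluorescence rise from hydrolysis of a fluorogenic O-methyl fluorescein ester substrate.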 It counts as functional.
Assay [3] is described as follows: cAMP pathway inhibition in counterscreen cell line – TR-FRET cAMP detection, counter-screen for MC4R biased antagonist project, dose response (AID 602305).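 Note: U2OS cells stimulated with forskolin near its EC80 as the cAMP inducer; potency is for inhibition of forskolin-stimulated cAMP signaling.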 It counts as functional, cell-based. Background: Counterscreens check selectivity or assay interference.
For assay [4], the target named is T2, Rac GTPase-activating protein 1 (Homo sapiens, UniProt Q9H0H5).
T2 sequence (Q9H0H5 whole entry): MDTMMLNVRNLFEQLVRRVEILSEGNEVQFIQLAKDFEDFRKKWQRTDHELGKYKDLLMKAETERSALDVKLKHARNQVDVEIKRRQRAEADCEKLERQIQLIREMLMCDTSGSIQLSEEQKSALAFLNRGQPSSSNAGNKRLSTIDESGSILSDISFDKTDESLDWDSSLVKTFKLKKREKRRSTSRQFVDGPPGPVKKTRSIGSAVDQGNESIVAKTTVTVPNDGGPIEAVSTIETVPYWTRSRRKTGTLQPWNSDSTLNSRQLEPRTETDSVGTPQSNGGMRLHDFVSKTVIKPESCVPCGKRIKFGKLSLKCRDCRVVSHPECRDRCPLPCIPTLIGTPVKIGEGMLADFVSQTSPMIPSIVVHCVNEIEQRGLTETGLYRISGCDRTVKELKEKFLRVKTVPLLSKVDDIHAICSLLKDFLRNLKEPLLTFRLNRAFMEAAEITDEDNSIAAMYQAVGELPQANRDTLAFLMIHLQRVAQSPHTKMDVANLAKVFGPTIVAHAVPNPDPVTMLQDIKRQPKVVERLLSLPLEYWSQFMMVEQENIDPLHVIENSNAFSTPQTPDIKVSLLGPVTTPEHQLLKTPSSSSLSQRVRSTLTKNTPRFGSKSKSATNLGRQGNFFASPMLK
The experiment in a line: blockers of MgcRacGAP-driven Rac1 GTP hydrolysis – biochemical, ADP Hunter fluorescence, primary and confirmatory, confirmation (AID 624330). It counts as functional.

Assay [5] can be described thus: HEK-293T viability loss after treatment – luminescence, T-cell screen hits, cytotoxicity control for TCR NF-kB inhibitor project, dose response (AID 489026).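 Note: cells exposed to compound about 14 hours before the viability readout.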 It counts as functional, cell-based.
The target in a further assay is Beta-galactosidase (Escherichia coli, UniProt Q8VNN2). The experiment in a line: PubChem AID 485352. It counts as functional.
Assay [6] can be described thus: non-specific 3'UTR reporter inhibition in Clone20-Shn3RL – cell-based, Renilla luciferase, cherry-picked, counter-screen for Shn3 inhibitor project, dose response (AID 624133). It counts as functional.
In assay [7] the target is T3, Type-1 angiotensin II receptor (Homo sapiens, UniProt P30556).
T3 sequence (P30556 whole entry): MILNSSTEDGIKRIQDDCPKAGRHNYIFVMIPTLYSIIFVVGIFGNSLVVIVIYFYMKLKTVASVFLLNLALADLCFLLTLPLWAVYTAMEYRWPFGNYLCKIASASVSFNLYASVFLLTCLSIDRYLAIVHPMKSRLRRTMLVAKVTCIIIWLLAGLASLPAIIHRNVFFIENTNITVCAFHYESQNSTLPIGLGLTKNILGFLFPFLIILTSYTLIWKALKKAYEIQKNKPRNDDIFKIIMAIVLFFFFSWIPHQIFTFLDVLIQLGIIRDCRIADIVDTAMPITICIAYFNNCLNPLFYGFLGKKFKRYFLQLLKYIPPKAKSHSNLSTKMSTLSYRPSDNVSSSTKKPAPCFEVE
The experiment in a line: antagonism of angiotensin II type 1 receptor – cell-based, uHTS hits, selectivity assay for APJ receptor antagonist project, dose response (AID 463214).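 Note: antagonist potency against angiotensin II stimulated AT1 response.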 It counts as functional.

Assay [8] is described as follows: viability loss in HeLa cells – cytotoxicity control for MgcRacGAP inhibitor project, dose response (AID 624300). It counts as functional.
For assay [9], the target named is Heat shock protein HSP 90-alpha (Homo sapiens, UniProt P07900). It counts as functional, organism-based.
A further assay deals with Beta Lactamase (Pseudomonas aeruginosa, UniProt Q932Y6). Briefly: BLA reporter interference, concentration series – BLA reporter cells, FRET fluorescence, artefact control for TLR9-MyD88 binding inhibitor project, dose response (AID 588341).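 Note: cell based assay in CHO-K1 cells stably expressing beta-lactamase.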 It counts as cell-based.
Beta Lactamase, sequence (Q932Y6 whole entry): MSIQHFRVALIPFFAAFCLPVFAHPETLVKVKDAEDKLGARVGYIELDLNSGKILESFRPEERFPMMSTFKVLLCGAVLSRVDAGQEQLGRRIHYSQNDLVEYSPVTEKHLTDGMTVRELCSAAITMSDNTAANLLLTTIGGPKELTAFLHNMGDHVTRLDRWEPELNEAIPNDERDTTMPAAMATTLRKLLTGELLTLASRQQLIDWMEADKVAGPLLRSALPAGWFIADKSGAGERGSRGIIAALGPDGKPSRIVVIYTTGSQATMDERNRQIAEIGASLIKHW
The next assay deals with Melanocortin receptor 4 (Homo sapiens, UniProt P32245). The experiment in a line: inhibitors of MC4R cAMP signaling – cell-based, TR-FRET, biased antagonists, dose response (AID 602298).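 Note: antagonist potency against agonist-stimulated cAMP production.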 It counts as functional. For orientation: TR-FRET usually uses a lanthanide donor and a delayed reading to cut background.
Melanocortin receptor 4, sequence (P32245 whole entry): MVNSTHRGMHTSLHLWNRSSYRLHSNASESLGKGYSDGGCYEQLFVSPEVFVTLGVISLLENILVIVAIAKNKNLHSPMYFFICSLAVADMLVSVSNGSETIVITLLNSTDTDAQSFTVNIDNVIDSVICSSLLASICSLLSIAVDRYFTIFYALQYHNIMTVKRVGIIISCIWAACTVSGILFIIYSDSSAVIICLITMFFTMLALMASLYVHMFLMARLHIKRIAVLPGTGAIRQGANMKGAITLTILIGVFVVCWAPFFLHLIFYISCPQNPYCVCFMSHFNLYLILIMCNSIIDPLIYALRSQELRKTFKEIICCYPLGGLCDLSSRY
Assay [10] is described as follows: reduction of Shn3 3'UTR-driven luciferase in osteoblasts – cell-based, Clone20 osteoblasts, firefly luciferase, cherry-picked, dose response (AID 624132).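 Note: firefly luciferase luminescence from reporter carrying the Shn3 3'UTR in osteoblasts.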 It counts as functional.
The target of assay [11] is T1, Fatty acid synthase. Briefly: inhibition of human FAS-TE enzyme activity – biochemical, endpoint fluorescence intensity, uHTS hits, dose response (AID 624327).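 Note: fluorescence from hydrolysis of an O-methyl fluorescein acyl ester substrate by the enzyme.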 It counts as functional.
A further assay deals with CHO. Briefly: CHO cell viability loss, potency – luminescence, cytotoxicity control for TLR9-MyD88 binding inhibitor project, dose response (AID 588339).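 Note: CHO cells stably coexpressing TLR9 and MyD88 fusions from primary screen; compound exposure lasted 48 hours before viability readout.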 It counts as functional, cell-based, hamster. The note with it: Cricetulus griseus.
The test system of assay [12] is HEK293. Briefly: HEK293T cell viability loss, resazurin readout – resazurin fluorescence, cytotoxicity control for NF-kB activator project, SAR follow-up (AID 493251). It counts as functional, cell-based. The note with it: Homo sapiens.
Assay [13] can be described thus: HEK-293T cell viability reduction – luminescence, B-cell screen hits, cytotoxicity control for BCR NF-kB inhibitor project, dose response (AID 489021).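 Note: HEK-293T cells carrying an NF-kB luciferase reporter; cells exposed to compound for about 14 hours before viability readout.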 It counts as functional, cell-based.
For assay [14], the system named is HEK293. Briefly: SAR Analysis of small molecule inhibitors of T-cell specific antigen receptor-induced NF-kB activation in a HEK-293T cell line using a luminescence assay - Set 2. [Related pubchem assays (depositor defined):AID435003, AID435012, AID489026]. It counts as functional, cell-based. The note with it: Homo sapiens.
A further assay deals with Jurkat. The experiment in a line: SAR Analysis of small molecule inhibitors of T-cell specific antigen receptor-induced NF-kB activation in a Jurkat cell line using a luminescence assay - Set 2. [Related pubchem assays (depositor defined):AID435003, AID435012, AID465]. It counts as functional, cell-based. The note with it: Homo sapiens.
In another assay the target is DNA topoisomerase (Yersinia pestis, UniProt A0A2S9PM60). Briefly: Yersinia topoisomerase I cleavage product accumulation – biochemical, cherry-pick, dose response (AID 588525).
DNA topoisomerase, sequence (A0A2S9PM60 whole entry): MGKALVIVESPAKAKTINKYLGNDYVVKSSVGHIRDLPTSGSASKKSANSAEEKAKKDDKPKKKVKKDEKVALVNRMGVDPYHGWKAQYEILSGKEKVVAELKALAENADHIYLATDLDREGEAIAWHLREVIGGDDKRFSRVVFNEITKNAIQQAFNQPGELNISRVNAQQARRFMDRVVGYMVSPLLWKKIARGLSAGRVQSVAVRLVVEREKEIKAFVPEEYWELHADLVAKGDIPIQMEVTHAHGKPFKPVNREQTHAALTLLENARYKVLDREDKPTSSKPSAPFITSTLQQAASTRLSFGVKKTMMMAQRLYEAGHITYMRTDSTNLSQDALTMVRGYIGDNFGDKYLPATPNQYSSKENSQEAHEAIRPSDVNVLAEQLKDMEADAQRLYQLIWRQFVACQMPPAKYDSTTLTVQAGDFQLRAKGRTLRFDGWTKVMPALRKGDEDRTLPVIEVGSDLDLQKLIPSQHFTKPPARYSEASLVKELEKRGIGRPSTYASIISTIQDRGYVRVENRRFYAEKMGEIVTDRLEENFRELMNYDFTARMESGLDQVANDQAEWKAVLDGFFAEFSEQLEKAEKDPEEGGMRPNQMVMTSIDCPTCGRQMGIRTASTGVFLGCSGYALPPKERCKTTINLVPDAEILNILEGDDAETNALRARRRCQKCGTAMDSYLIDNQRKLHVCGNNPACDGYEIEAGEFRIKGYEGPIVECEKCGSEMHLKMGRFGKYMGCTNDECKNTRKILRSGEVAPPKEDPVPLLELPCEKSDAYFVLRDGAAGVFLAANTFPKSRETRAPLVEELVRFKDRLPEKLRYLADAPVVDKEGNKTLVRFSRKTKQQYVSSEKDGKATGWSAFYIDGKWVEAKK

T1 sequence (P49327 whole entry): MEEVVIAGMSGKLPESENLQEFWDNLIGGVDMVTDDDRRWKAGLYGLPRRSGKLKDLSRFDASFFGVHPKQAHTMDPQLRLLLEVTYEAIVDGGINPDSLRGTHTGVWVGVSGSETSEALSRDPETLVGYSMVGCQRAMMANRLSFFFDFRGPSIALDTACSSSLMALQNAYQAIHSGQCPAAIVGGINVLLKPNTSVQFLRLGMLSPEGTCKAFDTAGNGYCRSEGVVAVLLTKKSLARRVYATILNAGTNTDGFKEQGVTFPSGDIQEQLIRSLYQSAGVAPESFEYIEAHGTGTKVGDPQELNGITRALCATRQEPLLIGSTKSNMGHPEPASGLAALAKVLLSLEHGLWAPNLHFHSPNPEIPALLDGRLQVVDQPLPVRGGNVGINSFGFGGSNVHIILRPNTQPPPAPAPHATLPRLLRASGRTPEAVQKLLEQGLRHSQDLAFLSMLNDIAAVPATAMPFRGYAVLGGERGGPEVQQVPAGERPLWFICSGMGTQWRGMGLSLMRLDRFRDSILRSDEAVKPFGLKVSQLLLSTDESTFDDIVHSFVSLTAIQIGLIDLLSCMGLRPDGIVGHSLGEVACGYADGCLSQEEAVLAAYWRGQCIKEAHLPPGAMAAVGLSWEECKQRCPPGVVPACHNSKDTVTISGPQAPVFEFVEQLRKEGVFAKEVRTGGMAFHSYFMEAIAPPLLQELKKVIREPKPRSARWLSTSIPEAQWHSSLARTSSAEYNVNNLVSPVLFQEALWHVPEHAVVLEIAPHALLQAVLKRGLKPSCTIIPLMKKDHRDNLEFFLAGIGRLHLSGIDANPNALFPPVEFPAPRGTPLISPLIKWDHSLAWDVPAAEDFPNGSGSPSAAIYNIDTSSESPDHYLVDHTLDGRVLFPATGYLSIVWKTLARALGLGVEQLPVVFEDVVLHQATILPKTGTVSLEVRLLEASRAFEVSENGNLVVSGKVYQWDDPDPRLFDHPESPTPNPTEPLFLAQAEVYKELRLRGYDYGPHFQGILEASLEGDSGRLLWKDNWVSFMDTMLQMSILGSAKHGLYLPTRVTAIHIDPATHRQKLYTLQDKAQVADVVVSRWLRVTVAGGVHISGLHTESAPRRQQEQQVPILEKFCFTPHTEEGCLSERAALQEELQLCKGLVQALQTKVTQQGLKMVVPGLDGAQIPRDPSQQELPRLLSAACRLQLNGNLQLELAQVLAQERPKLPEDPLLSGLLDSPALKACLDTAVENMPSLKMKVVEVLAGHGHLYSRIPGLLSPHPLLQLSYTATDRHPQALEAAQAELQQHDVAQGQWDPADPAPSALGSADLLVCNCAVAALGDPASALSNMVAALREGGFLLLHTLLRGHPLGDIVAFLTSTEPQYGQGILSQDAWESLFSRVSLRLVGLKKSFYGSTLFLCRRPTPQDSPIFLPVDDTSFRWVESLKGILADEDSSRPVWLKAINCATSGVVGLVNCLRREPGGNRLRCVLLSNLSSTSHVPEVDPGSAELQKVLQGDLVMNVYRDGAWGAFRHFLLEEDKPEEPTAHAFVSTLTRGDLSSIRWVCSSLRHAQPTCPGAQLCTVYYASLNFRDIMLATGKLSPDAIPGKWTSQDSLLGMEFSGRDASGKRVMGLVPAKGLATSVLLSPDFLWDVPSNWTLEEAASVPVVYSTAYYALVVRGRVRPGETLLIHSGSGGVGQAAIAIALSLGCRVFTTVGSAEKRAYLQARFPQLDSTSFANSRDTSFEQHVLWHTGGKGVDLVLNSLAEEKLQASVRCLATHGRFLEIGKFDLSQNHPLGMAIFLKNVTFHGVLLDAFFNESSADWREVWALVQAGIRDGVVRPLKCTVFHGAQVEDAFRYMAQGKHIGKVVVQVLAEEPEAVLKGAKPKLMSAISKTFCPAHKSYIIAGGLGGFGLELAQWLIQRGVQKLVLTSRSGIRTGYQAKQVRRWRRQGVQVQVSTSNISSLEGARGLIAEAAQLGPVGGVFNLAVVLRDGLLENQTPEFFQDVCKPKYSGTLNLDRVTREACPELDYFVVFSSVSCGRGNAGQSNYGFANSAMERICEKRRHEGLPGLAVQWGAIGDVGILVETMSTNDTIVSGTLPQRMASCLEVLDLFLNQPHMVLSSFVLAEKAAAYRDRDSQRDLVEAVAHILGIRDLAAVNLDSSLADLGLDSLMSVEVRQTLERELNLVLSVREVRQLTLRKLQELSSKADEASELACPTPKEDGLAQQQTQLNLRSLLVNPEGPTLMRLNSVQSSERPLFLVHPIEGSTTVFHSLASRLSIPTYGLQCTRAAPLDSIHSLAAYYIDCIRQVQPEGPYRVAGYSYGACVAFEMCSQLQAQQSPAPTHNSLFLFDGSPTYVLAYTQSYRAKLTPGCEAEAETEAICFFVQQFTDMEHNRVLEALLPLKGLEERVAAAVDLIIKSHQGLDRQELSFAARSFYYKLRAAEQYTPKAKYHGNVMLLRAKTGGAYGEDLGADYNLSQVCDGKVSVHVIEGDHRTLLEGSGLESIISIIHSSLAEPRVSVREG

Usually EC50 stands for the midpoint of the concentration-response curve. For orientation: IC50 means the concentration needed to halve the response being measured. As usually defined, the AC50 is the concentration at which the activity in the assay is half-maximal. In general, CC50 refers to the concentration giving 50% cytotoxicity. As for `COc1ccc(NC(=O)/C(Cl)=C(/Cl)[S+]([O-])Cc2ccc(Cl)cc2)cn1` (stereo not given), the 50% effective concentration (EC50) in [1] is 0.62 µM (active); on Beta-galactosidase, > 40 µM (inactive). For the same compound, the IC50 at Fatty acid synthase [2] was 2.83 µM (active); in assay [3], > 64.6 µM (inactive); in assay [4], 16.9 µM (active); in assay [5], 41.7 µM (inactive); in [7] it was 2.35 µM (active); on Beta Lactamase it was 7.83 µM (active). For the same compound, the IC50 at Melanocortin receptor 4 was 9.97 µM (active); at Fatty acid synthase [11] it was 5.57 µM (active); with CHO, 0.463 µM (active). The concentration at half-maximal activity (AC50) in assay [6] was 3.48 µM (active); in [9], 0.885 µM (active); in assay [10] it was 1.34 µM (active). Further, the CC50 in assay [8] was 100 µM (active).
As for `O=C(Nc1nc2c(Br)cc(Br)cc2c(=O)s1)c1ccco1`, the IC50 in the assay on HEK293 [12] was > 80 µM (inactive); in assay [13], > 80 µM (inactive); in the assay on HEK293 [14], > 80 µM (inactive); in the assay on Jurkat, 6.7 µM (active).
Turning to `CC(C)CC1NC(=O)c2cc3ccccc3cc2-n2c1nc1cc(Cl)ccc1c2=O` (stereo not given), the concentration at half-maximal activity (AC50) on DNA topoisomerase is 10.2 µM (active).
